# Assay results as given in patent US5703069A, “Method for inhibiting and controlling viral growth” (Warner-Lambert Company, priority 1996, dated 1997).
# Where two headings read alike, the source gives them in different places.
# Experiments:
# herpesvirus = experiment: SGC anti-herpesvirus assay; type: cell-based; details: read-out: IC50 Inhibitory Activity (SGC)
# OM-10.1 cells [1] = experiment: inhibition of HIV-1 activation / HIV expression in chronically infected OM-10.1 cells (TNF-α induced); type: cell-based, human immunodeficiency virus type 1 (HIV-1); details: Human immunodeficiency virus 1
# Source text: The cellular pathways involved in mediating the activating signal from the plasma membrane to the integrated virus, resulting in HIV-1 expression, are much less clear. Recently, the development of a reliable and simple system for evaluating compounds that could prevent activation of latent HIV was reported at a National Cooperative Discovery Grant (NCDDG)/AIDS meeting by P. Feorino, S. T. Butera, T. M. Folks, and R. F. Schinazi, Nov. 3-7, 1991. The assay system employed the OM-10.1 cell line, a unique chronically-infected promyelocytic clone which remains CD4+ until HIV-1 activation with tumor necrosis factor-α. The expression of CD4+ on the cell surface and the activity of reverse transcriptase are used as markers for quantitating viral expression. Alternatively, other HIV markers, such as protease activity, which are known to those of skill in the art can be used. OM-10.1 cells remain CD4+ until viral activation and respond to tumor necrosis factor induction, and therefore, these cultures are used to conveniently and rapidly examine pharmacologics for an ability to prevent CD4+ down modulation (decrease in expression of CD4+ on the cell surface) and HIV-1 expression.
# A variety of compounds known to have antiviral properties against either acutely or chronically infected cells were evaluated for their ability to inhibit HIV expression in these OM-10.1 cells. […]
# wild type HSV-1 = experiment: PRA (plaque reduction assay with wild type HSV-1); type: cell-based; details: read-out: IC50 Inhibitory Activity (PRA)
# Vero cells = details: monkey, 120 h
# Description: This screen was designed to identify compounds which inhibit HSV-1 in phases of its life cycle from adsorption and penetration through late gene expression. The primary screen, AVUS1, involves adding single compounds to a monolayer of Vero cells to a final concentration of 25 μg/mL, then infecting the cells with a recombinant HSV-1, Us3::Tn5-lacZ. This virus contains an insertion of a lacZ gene driven by a viral late promoter in the US3 protein kinase gene of HSV-1. The infection is allowed to proceed for 20 hours, then the cells are lysed with a solution of Triton X-100 and CPRG in "Z" buffer and assayed for β-galactosidase activity. The positive control used is solvent alone without compound, which corresponds to 0% inhibition, and the negative control used is either no virus added to the wells or 0.5% Triton X-100 added to the wells, which corresponds to 100% inhibition. Percent inhibition of a compound is then calculated using these positive and negative controls. […] In AVUS3, the test compound is dissolved in MeOH at 20 mM. A titration of the compound is then assayed in both the same β-galactosidase virus replication inhibition assay and a 5-day XTT toxicity assay. […]
# OM-10.1 cells [2] = details: NCDDG/AIDS poster, San Diego, Nov. 3-7 (1991); cited from earlier work
# [3] = system: TPA-mediated CD4 down regulation and HIV expression; details: Hamamoto et al. 1989; cited from earlier work
compound,measurement,setting,value
"COc1ccc2sc3c(c2c1)SCCNC3=O [2,3-Dihydro-9-methoxy[1]benzothieno[2,3-f]-1,4-thiazepin-5(4H)-one]",IC50,herpesvirus,350 nM
same,IC50,OM-10.1 cells [1],210 nM
same,IC50,"wild type HSV-1; Human alphaherpesvirus 1, PRA",450 nM
same,IC50,wild type HSV-1; PRA,550 nM
same,CC50,Vero cells,60000 nM
"Cc1cn([C@H]2C[C@H](F)[C@@H](CO)O2)c(=O)[nH]c1=O [3'-fluoro-3'-deoxythymidine (FLT), 3'-fluoro-3'-deoxythymidine]",inhibition of the activation of HIV-1 (in words),OM-10.1 cells [2],modest inhibitors of the activation of HIV-1
CCCCCCCCCCCCCC(=O)O[C@@H]1[C@@H](C)[C@@]2(O)[C@@H](C=C(CO)C[C@]3(O)C(=O)C(C)=C[C@@H]23)[C@@H]2C(C)(C)[C@]12OC(C)=O [12-O-tetradecanoylphorbol-13-acetate],effect on CD4 and viral expression in HIV-infected cells (in words),[3],mediates CD4 down regulation and viral expression in HIV-infected cells
CC(=O)N(O)CCCCCNC(=O)CCC(=O)N(O)CCCCCNC(=O)CCC(=O)N(O)CCCCCN [desferrioxamine],inhibition of the activation of HIV-1 (in words),OM-10.1 cells [2],modest inhibitors of the activation of HIV-1
